Measured values published in US10392643B2, “Methods of using acyl-CoA synthetase for biosynthetic production of acyl-CoAs” (Conagen Inc., priority 2013, dated 2019).

Test system: ghost pepper ACS1
Assay: HPLC-based method to measure the activity of ghost pepper ACS1 against carboxylic acids
Assay type: biochemical, ghost chili pepper
Settings: for ACS1 activity with 8-methyl-trans-6-nonenoic acid or 8-methylnonanoic acid as a substrate (FIG. 9): HPLC profiles of enzymatic products, 6E compared with 8M; for activities of ACS1 against various carboxylic acids (FIG. 8): 200 μM carboxylic acids as substrate, 30 min, acyl-CoA formation by HPLC at 257 nm, 100 mM Tri buffer, pH8.0 (FIG. 8 legend)
Protocol: C2, acetic acid; C4, butyric acid; C6, hexanoic acid, C8,caprylic acid; C10, capric acid; C12, lauric acid; C14, myristic acid; C16, palmitic acid; C18, stearic acid. The assay was performed in 100 mM Tri buffer, pH8.0.
Applicants used an HPLC-based method to measure the activity of ghost pepper ACS1 (Chen et al., 2011). Briefly, reaction mixtures (400 μL) contained 0.1 M Tris-HCl, […], 2 mM DTT, 5 mM ATP, 10 mM MgCl2, 0.5 mM CoA, 0.1% Triton and 200 μM carboxylic acids. The reaction was initiated by adding 20 μl of purified enzyme and stopped after 30 min by addition of 20 μl al acetic acid. HPLC was performed with Dionex-UltiMate® 3000 LC Systems (Thermo Scientific) using an Acclaim® 120 C18 reversed-phase column (Thermo Scientific; 3 μ, 120 Å, 150×3 mm). The mobile phase consisted of solvent A (0.1% trifluoroacetic acid) and solvent B (acetonitrile). The gradient elution procedure was as follows: 0 to 5 min, 5% of B; 5 to 9 min, a linear gradient from 5 to 80% of B; 9 to 11 min, 80% of B; 11 to 12 min, 5% of B. The flow rate was 0.6 ml/min. The diode array detector collected data in the 200- to 400-nm range. For detection and quantification of substrate and products, peak areas were measured at 257 nm.

Row | SMILES | ACS1 activity with 8-methyl-trans-6-nonenoic acid or 8-methylnonanoic acid as a substrate (FIG. 9) | activities of ACS1 against various carboxylic acids (FIG. 8)
1 | CC(C)/C=C/CCCCC(=O)O [6E, 8-methyl-trans-6-nonenoic acid] | higher activity | 
2 | CC(C)CCCCCCC(=O)O [8M, 8-methylnonanoic acid] | showed activities | 
3 | CC(=O)O [acetic acid] |  | did not show any activity
4 | CCCC(=O)O [butyric acid] |  | did not show any activity
5 | CCCCCCCCCC(=O)O [capric acid] |  | highest activity
